These results are taken from patent publication US20240254135A1, “POLYPHENOL COMPOUNDS” (Epirium Bio Inc., priority 2022, published 2024).

The nature of this series: Pharmacokinetics: quantitative determination in mice brains (LCMS). The format is in vivo, C57BL/6 Mice. The note with it: mice brain, 10 mg/kg PO single dose, 10% NMP vehicle; for Tmax: C57BL/6, mouse. As for the experimental part: C57BL/6 Mice, Age 7-9 weeks, body weight range 20-25 g were used. The mice were fasted overnight. Mice were dosed once a day for a single day at 10 mg/kg, 10 mg/kg. 6 time-points were used for whole blood. 10% NMP was used as a vehicle. 9 animals were used per treatment, with three groups of three animals each. Group 1 had time points at 15 and 60 minutes, Group 2 had time points at 30 and 120 minutes, and Group 3 had time points at 90 and 240 minutes. An Oral (PO) route was used. Plasma and brain samples were collected (brain sample collected at terminal time point). Plasma was collected through the centrifugation of whole blood at 10,000 rpm for 10 minutes at 4° C. Samples were stored at −80° C. until processing.
1.00 mg/mL in 100% MeOH PP vials (prepared at RT yellow light) at 2-8° C. were used as stock solution. 12.22-50000 ng/mL using 80% MeOH PP vials (prepared at RT yellow light) at 2-8° C. were used as working solution. 0.48-2000 ng/ml (prepared at RT yellow light) was used for the curve range. For Compounds 75b and 78a, 1.00 mg/mL of Compound 79 in 100% methanol Ria vials (Prepared at RT yellow light) was used as IS stock solution, and 60 ng/ml of Compound 79 in 80% methanol (Prepared at RT yellow light) was used as IS working solution. For Compound 76b, 1.00 mg/mL of Compound 44 in 100% methanol Ria vials (Prepared at RT yellow light) was used as IS stock solution, and 60 ng/ml of Compound 44 in 80% methanol (Prepared at RT yellow light) was used as IS working solution. A linear, 1/x2 fit type was used. The injection volume was 15 μL. Mobile Phase A was 0.1% Formic Acid in water at room temperature. Mobile Phase B was 100% methanol at room temperature. R0 wash solution was 80% methanol at room temperature. R^3 wash solution was IPA/MeOH/ACN/water (1:1:1:1) at room temperature. The column was Agilent Eclipse 50*2.1 mm 1.8 μm and the instrument was Shimadzu LC-40 UPLC and AB Sciez 6500+ with LCMS002.
For Compound 75b, 100 mg of brain tissue were weighed, 400 μL of Ice cold PBS was added, and the sample was homogenated using a polytron homogenizer. Before starting the experiment the blade was cleaned with NS, Methanol, Methanol:Water (50:50) followed by NS. Using a pipette with Methanol-rinsed pipette tips, 50 μL of each sample (calibration curve sample, QC samples and blank matrix) was aliquot to labeled 12×75-mm glass tubes. Using Methanol-rinsed pipette tips, 5.0 μL of IS of conc. 60 ng (Compound 79) was added to each standard and samples except Blank. All tubes were mixed on a multi-tube vortex for approximately 30 seconds. 1 ml of Ethyl Acetate was added. All tubes were mixed on a multi-tube vortex for approximately 5 minutes then centrifuged for 10 min at 5,000 rpm, 4° C. The sample was kept in methanol containing dry ice for few seconds to freeze the Aqueous layer (flash freeze method). The upper organic layer was poured from the frozen tubes into the labeled 12×75-mm glass tubes then evaporated to dryness under nitrogen using Liquid Evaporator (30° C., −15 psi, ˜ 10 mins). 200 μl of reconstitution solution (10 mM Ammonium Formate:MeOH (40:60 v/v) was added into each tube, which was then vortexed for 30 seconds and transferred to amber glass injection vials for injection. At the terminal time points, animals were euthanized after blood sample collection. Their skulls were opened and whole brains were separated and collected in previously labeled tubes. The tubes were then immediately transferred into liquid nitrogen container for snap freezing. Later the samples were stored at −80° C.
For Compounds 76b and 78a, 100 mg of brain tissue were weighed, 400 μL of Ice cold PBS was added, and the samples were homogenated using a polytron homogenizer. Before starting the experiment the blade was cleaned with NS, Methanol, Methanol:Water (50:50) followed by NS. […]

By Tmax is commonly meant the time at which the peak concentration occurs. `COc1cc(C2Oc3ccccc3CC2O)ccc1F` (single isomer, unassigned) [Compound 75b, 2-(4-fluoro-3-methoxyphenyl)chroman-3-ol]: the Tmax turned out to be 1 h and the AUC0-4 came out at 238.5399 hr*g/tissue.

Consider `Oc1cc(O)c2c(c1)OC(c1ccc(O)c(F)c1)C(O)C2` (single isomer, unassigned) [Compound 76b, 2-(3-fluoro-4-hydroxyphenyl)chromane-3,5,7-triol], for which the Tmax is 1 h and the AUC0-4 is recorded as 5.993 hr*g/tissue.

For `Oc1cc(O)c2c(c1)OC(c1ccccc1)C(O)C2` (single isomer, unassigned) [Compound 78a, 2-phenylchromane-3,5,7-triol], the time to peak (Tmax) turned out to be 1 h and the AUC0-4 is 29.135 hr*g/tissue.
